Results: US8278345B2, “Inhibitors of glutaminyl cyclase” (Probiodrug AG, priority 2006, dated 2012)

These compounds were tested against hQC (Homo sapiens, UniProt Q16769) (assay: Inhibitor assay for glutaminyl cyclase activity (fluorometric, H-Gln-βNA / H-Gln-AMC)). Conditions: read-out: IC50.
Type: biochemical
In short: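 Ki values came from fitting progress curves to a competitive inhibition model; rapid screens used 4 mM inhibitor with substrate at KM. QC activity was read at 30 °C via auxiliary pyroglutamyl aminopeptidase releasing βNA (0.2 mM H-Gln-βNA, 0.2 M Tris pH 8.0, 20 mM EDTA) or AMC (0.05 M Tris pH 8.0, 5 mM EDTA).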

Chain of hQC (Q16769 29-361): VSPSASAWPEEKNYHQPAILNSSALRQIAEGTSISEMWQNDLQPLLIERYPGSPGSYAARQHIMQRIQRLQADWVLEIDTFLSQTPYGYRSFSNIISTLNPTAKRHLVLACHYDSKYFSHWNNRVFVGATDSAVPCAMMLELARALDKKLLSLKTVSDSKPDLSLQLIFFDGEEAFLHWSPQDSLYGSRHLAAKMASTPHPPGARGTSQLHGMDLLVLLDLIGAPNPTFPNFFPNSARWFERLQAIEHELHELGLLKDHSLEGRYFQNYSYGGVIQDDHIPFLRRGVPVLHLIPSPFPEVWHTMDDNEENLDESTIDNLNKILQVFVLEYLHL

| Compound | IC50 [µM] |
| --- | --- |
| CC(C)CC(=O)C1=C(O)C(=O)N(c2ccc3[nH]cnc3c2)C1c1c(F)c(F)cc(F)c1F (centres unmarked) [Compound 423, 1-(1H-Benzoimidazol-5-yl)-3-hydroxy-4-(3-methyl-butyryl)-5-(2,3,5,6-tetrafluoro-phenyl)-1,5-dihydro-pyrrol-2-one] | 0.04 |
| CCCC(=O)C1=C(O)C(=O)N(c2ccc3[nH]cnc3c2)C1c1ccsc1 (centres unmarked) [Compound 424, 1-(1H-Benzoimidazol-5-yl)-4-butyryl-3-hydroxy-5-thiophen-3-yl-1,5-dihydro-pyrrol-2-one] | 0.85 |
| CCCC(=O)C1=C(O)C(=O)N(c2ccc3[nH]cnc3c2)C1C1CCOC1 (centres unmarked) [Compound 425, 1-(1H-Benzoimidazol-5-yl)-4-butyryl-3-hydroxy-5-(tetrahydro-furan-3-yl)-1,5-dihydro-pyrrol-2-one] | 1.84 |
| CC1=C(O)C(=O)N(c2ccc3[nH]cnc3c2)C1c1ccco1 (centres unmarked) [Compound 426, 1-(1H-Benzoimidazol-5-yl)-5-furan-2-yl-3-hydroxy-4-methyl-1,5-dihydro-pyrrol-2-one] | 0.004 |
| CC(C)CC(=O)C1=C(O)C(=O)N(c2ccc3[nH]cnc3c2)C1c1cc[nH]n1 (centres unmarked) [Compound 427, 1-(1H-Benzoimidazol-5-yl)-3-hydroxy-4-(3-methyl-butyryl)-5-(1H-pyrazol-3-yl)-1,5-dihydro-pyrrol-2-one] | 7.96 |
| CCC1=C(O)C(=O)N(c2ccc3[nH]cnc3c2)C1c1coc2ccc(C)cc2c1=O (centres unmarked) [Compound 428, 1-(1H-Benzoimidazol-5-yl)-4-ethyl-3-hydroxy-5-(6-methyl-4-oxo-4H-chromen-3-yl)-1,5-dihydro-pyrrol-2-one] | 0.04 |
| Cc1cccc(C2C(c3ccc(O)cc3)=C(O)C(=O)N2c2ccc3[nH]cnc3c2)c1 (centres unmarked) [Compound 429, 1-(1H-Benzoimidazol-5-yl)-3-hydroxy-4-(4-hydroxy-phenyl)-5-m-tolyl-1,5-dihydro-pyrrol-2-one] | 1.39 |

Continued, values first:

| IC50 [µM] | Compound |
| --- | --- |
| 9.49 | Cc1cccc(C2C(C(C)C)=C(O)C(=O)N2c2ccc3[nH]cnc3c2)n1 (centres unmarked) [Compound 430, 1-(1H-Benzoimidazol-5-yl)-3-hydroxy-4-isopropyl-5-(6-methyl-pyridin-2-yl)-1,5-dihydro-pyrrol-2-one] |
| 2.11 | CCC1=C(O)C(=O)N(c2ccc3[nH]cnc3c2)C1c1ccc2nonc2c1 (centres unmarked) [Compound 431, 1-(1H-Benzoimidazol-5-yl)-5-(benzo[c][1,2,5]oxadiazol-5-yl)-4-ethyl-3-hydroxy-1,5-dihydro-pyrrol-2-one] |
| 2.65 | CCCC(=O)C1=C(O)C(=O)N(c2ccc3[nH]cnc3c2)C1c1ccc(CO)o1 (centres unmarked) [Compound 432, 1-(1H-Benzoimidazol-5-yl)-4-butyryl-3-hydroxy-5-(5-hydroxymethyl-furan-2-yl)-1,5-dihydro-pyrrol-2-one] |
| 1.21 | CC(=O)C1=C(O)C(=O)N(c2ccc3[nH]cnc3c2)C1c1cc(C)c(C)o1 (centres unmarked) [Compound 433, 4-Acetyl-1-(1H-benzoimidazol-5-yl)-5-(4,5-dimethyl-furan-2-yl)-3-hydroxy-1,5-dihydro-pyrrol-2-one] |
| 3.64 | Cc1cccc(C2C(c3cccc(O)c3)=C(O)C(=O)N2c2ccc3[nH]cnc3c2)c1 (centres unmarked) [Compound 434, 1-(1H-Benzoimidazol-5-yl)-3-hydroxy-4-(3-hydroxy-phenyl)-5-m-tolyl-1,5-dihydro-pyrrol-2-one] |
| 6.97 | O=C(C1=C(O)C(=O)N(c2ccc3[nH]cnc3c2)C1c1ncc[nH]1)C1CCCCC1 (centres unmarked) [Compound 435, 1-(1H-Benzoimidazol-5-yl)-4-cyclohexanecarbonyl-3-hydroxy-5-(1H-imidazol-2-yl)-1,5-dihydro-pyrrol-2-one] |
| 0.49 | CC1=C(O)C(=O)N(c2ccc3[nH]cnc3c2)C1c1c[nH]c2cc(C)ccc12 (centres unmarked) [Compound 436, 1-(1H-Benzoimidazol-5-yl)-3-hydroxy-4-methyl-5-(6-methyl-1H-indol-3-yl)-1,5-dihydro-pyrrol-2-one] |
